Source: patent publication US9884048B2, “ERK inhibitors” (Merck Sharp & Dohme Corp., priority 2014, dated 2018)

What follows are compounds tested against phosphorylated active hERK2 enzyme (Homo sapiens (Human), UniProt P28482). Details: not given.
Chain of phosphorylated active hERK2 enzyme (P28482 whole entry): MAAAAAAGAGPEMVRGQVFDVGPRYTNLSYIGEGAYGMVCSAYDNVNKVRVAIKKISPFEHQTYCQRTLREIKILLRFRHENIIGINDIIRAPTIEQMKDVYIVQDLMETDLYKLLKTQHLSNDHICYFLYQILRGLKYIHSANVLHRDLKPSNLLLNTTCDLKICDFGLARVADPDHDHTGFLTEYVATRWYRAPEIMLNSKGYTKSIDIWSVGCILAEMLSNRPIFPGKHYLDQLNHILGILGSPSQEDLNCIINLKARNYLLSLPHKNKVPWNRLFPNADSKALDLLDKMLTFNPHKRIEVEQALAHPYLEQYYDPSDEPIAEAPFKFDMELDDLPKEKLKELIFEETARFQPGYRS

Row | IC50 | SMILES
1 | 0.294 µM | C[C@@H](NC(=O)Nc1cc2cnn(CC3CCCC3)c2c(CO)n1)c1ccccc1 [Example 303, 1-[1-(cyclopentylmethyl)-7-(hydroxymethyl)-1H-pyrazolo[3,4-c]pyridin-5-yl]-3-[(1R)-1-phenylethyl]urea]
2 | 0.00793 µM | Cc1cc(-n2ncc3cc(NC(=O)N[C@H]4CCC[C@H]4c4ccccc4)ncc32)ccn1 (racemic) [Example 148, Racemic 1-[1-(2-methylpyridin-4-yl)-1H-pyrazolo[3,4-c]pyridin-5-yl]-3-[(1S,2S) and (1R, 2R)-2-phenylcyclopentyl]urea]

Same assay, conditions: read-out: ERK2 IC50; IMAP-FP assay; 0.5 nM hERK2, 30 μM ATP; 10 point titration, 3 μM starting concentration

Row | IC50 | SMILES
3 | 0.00339 µM | CNC(=O)c1cccc(CNC(=O)Nc2cc3cnn(-c4ccnc(C)c4)c3cn2)c1 [Example 97, N-methyl-3-[({[1-(2-methylpyridin-4-yl)-1H-pyrazolo[3,4-c]pyridin-5-yl]carbamoyl}amino)methyl] benzamide]
4 | 0.0491 µM | C[C@@H](NC(=O)Nc1cc2cnn(C3CCCCC3)c2c(CO)n1)c1ccccc1 [Example 313, 1-[1-cyclohexyl-7-(hydroxymethyl)-1H-pyrazolo[3,4-c]pyridin-5-yl]-3-[(1R)-1-phenylethyl]urea]
5 | 0.0647 µM | Cc1cc(-n2ncc3cc(NC(=O)NCCC4CCOC4)ncc32)ccn1 (stereo not drawn) [Example 83, 1-[1-(2-methylpyridin-4-yl)-1H-pyrazolo[3,4-c]pyridin-5-yl]-3-[2-(tetrahydrofuran-3-yl)ethyl]urea]
6 | 0.0241 µM | Cc1cc(-n2ncc3cc(NC(=O)N[C@H]4CNC[C@@H]4Oc4ccc(F)cc4)ncc32)ccn1 [Example 284, 1-[(3S,4S)-4-(4-fluorophenoxy)pyrrolidin-3-yl]-3-[1-(2-methylpyridin-4-yl)-1H-pyrazolo[3,4-c]pyridin-5-yl]urea]
7 | 0.0197 µM | O=C(NCc1ccc(Cl)c(Cl)c1)Nc1cc2cnn(-c3ccc(F)cc3)c2cn1 [Example 13, 1-(3,4-dichlorobenzyl)-3-[1-(4-fluorophenyl)-1H-pyrazolo[3,4-c]pyridin-5-yl]urea]
8 | 0.103 µM | COCCNCc1nc(NC(=O)N[C@H](C)c2ccccc2)cc2cnn(-c3ccnc(C)c3)c12 [Example 321, 1-[7-{[(2-methoxyethyl)amino]methyl}-1-(2-methylpyridin-4-yl)-1H-pyrazolo[3,4-c]pyridin-5-yl]-3-[(1R)-1-phenylethyl]urea]
9 | 0.0604 µM | C[C@@H](NC(=O)Nc1cc2cnn(C)c2c(CO)n1)c1ccccc1 [Example 298, (R)-1-(7-(Hydroxymethyl)-1-methyl-1H-pyrazolo[3,4-c]pyridin-5-yl)-3-(1-phenylethyl)urea]
10 | 0.0121 µM | C[C@@H](NC(=O)Nc1cc2cnn(-c3cnn(C)c3)c2cn1)c1ccc(F)c(Cl)c1 [Example 205, (R)-1-(1-(3-chloro-4-fluorophenyl)ethyl)-3-(1-(1-methyl-1H-pyrazol-4-yl)-1H-pyrazolo[3,4-c]pyridin-5-yl)urea]
11 | 1.21 µM | Cc1cc(-n2ncc3cc(NC(=O)NCC4(N(C)C)CCCCC4)ncc32)ccn1 [Example 100, 1-{[1-(dimethylamino)cyclohexyl]methyl}-3-[1-(2-methylpyridin-4-yl)-1H-pyrazolo[3,4-c]pyridin-5-yl)urea]
12 | 0.0018 µM | O=C(NCc1ccc(F)cc1)Nc1cc2cnn(-c3ccncc3)c2cn1 [Example 6, 1-(4-fluorobenzyl)-3-(1-pyridin-4-yl-1H-pyrazolo[3,4-c]pyridin-5-yl)urea]
13 | 0.0394 µM | Cc1cc(-n2ncc3cc(NC(=O)N[C@H]4CCCC[C@@H]4Cc4ccccc4)ncc32)ccn1 [Example 163, 1-[(1S,2R)-2-benzylcyclohexyl]-3-[1-(2-methylpyridin-4-yl)-1H-pyrazolo[3,4-c]pyridin-5-yl)urea]
14 | 0.0641 µM | CCNC(=O)n1ncc2cc(NC(=O)N[C@H](C)c3ccccc3)ncc21 [Example 231, N-ethyl-5-({[(1R)-1-phenylethyl]carbamoyl}amino)-1H-pyrazolo[3,4-c]pyridine-1-carboxamide]
15 | 0.0103 µM | Cc1cc(-n2ncc3cc(NC(=O)N[C@H](C)c4ccccc4)nc(CO)c32)ccn1 [Example 300, 1-[7-(Hydroxymethyl)-1-(2-methylpyridin-4-yl)-1H-pyrazolo[3,4-c]pyridin-5-yl]-3-[(1R)-1-phenylethyl]urea]
16 | 0.235 µM | Cc1cc(-n2ncc3cc(NC(=O)N[C@@H]4CN(C)C[C@H]4c4ccccc4C(F)(F)F)ncc32)ccn1 [Example 192, 1-[1-(2-methylpyridin-4-yl)-1H-pyrazolo[3,4-c]pyridin-5-yl]-3-{(3S,4R)-1-methyl-4-[2-(trifluoromethyl)-phenyl]pyrrolidin-3-yl}urea]
17 | 0.00354 µM | CO[C@H]1CN(Cc2c(F)cccc2F)C[C@@H]1NC(=O)Nc1cc2cnn(-c3ccnc(C)c3)c2cn1 (single isomer, unassigned) [Example 274, 1-[(3R,4R) or (3S, 4S)-1-(2,6-difluorobenzyl)-4-methoxypyrrolidin-3-yl]-3-[1-(2-methylpyridin-4-yl)-1H-pyrazolo[3,4-c]pyridin-5-yl]urea]
18 | 0.0245 µM | COC[C@H](NC(=O)Nc1cc2cnn(-c3ccnc(C)c3)c2cn1)c1ccccn1 [Example 209, 1-[(1R)-2-methoxy-1-pyridin-2-ylethyl]-3-[1-(2-methylpyridin-4-yl)-1H-pyrazolo[3,4-c]pyridin-5-yl]urea]
19 | 0.0276 µM | Cc1cc(-n2ncc3cc(NC(=O)NCc4c(C)nn(C)c4C)ncc32)ccn1 [Example 116, 1-[1-(2-methylpyridin-4-yl)-1H-pyrazolo[3,4-c]pyridin-5-yl]-3-[(1,3,5-trimethyl-1H-pyrazol-4-yl)methyl]urea]

Row | IC50 | SMILES
20 | 0.235 µM | Cc1cc(-n2ncc3cc(NC(=O)N[C@H]4[C@H](c5ccccc5C)CN(C)C4(C)C)ncc32)ccn1 [Example 102, 1-[1-(2-methylpyridin-4-yl)-1H-pyrazolo[3,4-c]pyridin-5-yl]-3-[(3S,4R)-1,2,2-trimethyl-4-(2-methylphenyl)pyrrolidin-3-yl)urea]
21 | 0.579 µM | C[C@@H](NC(=O)Nc1cc2cnn(C)c2cn1)c1ccc(F)cc1 [Example 232, 1-[(1R)-1-(4-fluorophenyl)ethyl]-3-(1-methyl-1H-pyrazolo[3,4-c]pyridin-5-yl)urea]
22 | 2.18 µM | COC[C@@H](NC(=O)Nc1cc2cnn(C3CCNC(C)C3)c2cn1)c1ccccc1 (stereo partly drawn) [Example 239, 1-[(1S)-2-methoxy-1-phenylethyl]-3-[1-(2-methylpiperidin-4-yl)-1H-pyrazolo[3,4-c]pyridin-5-yl]urea]
23 | 0.00168 µM | Cc1cc(-n2ncc3cc(NC(=O)NCc4cccc(-c5ccon5)c4)ncc32)ccn1 [Example 98, 1-(3-isoxazol-3-ylbenzyl)-3-[1-(2-methylpyridin-4-yl)-1H-pyrazolo[3,4-c]pyridin-5-yl]urea]
24 | 0.453 µM | CCCN1CC[C@@H](NC(=O)Nc2cc3cnn(-c4ccnc(C)c4)c3cn2)C1 [Example 29, 1-[1-(2-methylpyridin-4-yl)-1H-pyrazolo[3,4-c]pyridin-5-yl]-3-[(3R)-1-propylpyrrolidin-3-yl]urea]
25 | 0.0492 µM | Cc1cc(-n2ncc3cc(NC(=O)NC(CCN4CCCCC4)c4ccccc4)ncc32)ccn1 (stereo not drawn) [Example 53, 1-[1-(2-methylpyridin-4-yl)-1H-pyrazolo[3,4-c]pyridin-5-yl]-3-(1-phenyl-3-piperidin-1-ylpropyl)urea]
26 | 0.0351 µM | Cc1cc(-n2ncc3cc(NC(=O)N[C@H]4CN(C)C[C@@H]4C4CCCCC4)ncc32)ccn1 [Example 31, 1-[(3R,4S)-4-cyclohexyl-1-methylpyrrolidin-3-yl]-3-[1-(2-methylpyridin-4-yl)-1H-pyrazolo[3,4-c]pyridin-5-yl]urea]
27 | 0.00903 µM | Cc1cc(-n2ncc3cc(NC(=O)N[C@H]4[C@H](c5ccccc5)CN(C)C45COC5)ncc32)ccn1 [Example 107, 1-[(7R,8S)-5-methyl-7-phenyl-2-oxa-5-azaspiro[3.4]oct-8-yl]-3-[1-(2-methylpyridin-4-yl)-1H-pyrazolo[3,4-c]pyridin-5-yl)urea]
28 | 0.000685 µM | Cc1cc(-n2ncc3cc(NC(=O)N[C@H](CN)c4ccccc4)ncc32)ccn1 [Example 187, 1-[(1S)-2-amino-1-phenylethyl]-3-[1-(2-methylpyridin-4-yl)-1H-pyrazolo[3,4-c]pyridin-5-yl]urea]
29 | 0.168 µM | CO[C@H]1CNC[C@@H]1NC(=O)Nc1cc2cnn(-c3ccnc(C)c3)c2cn1 [Example 132, 1-[(3S,4S)-4-methoxypyrrolidin-3-yl]-3-[1-(2-methylpyridin-4-yl)-1H-pyrazolo[3,4-c]pyridin-5-yl]urea]
30 | 0.00841 µM | Cc1cc(-n2ncc3cc(NC(=O)NCc4ccccc4)ncc32)ccn1 [Example 58, 1-benzyl-3-[1-(2-methylpyridin-4-yl)-1H-pyrazolo[3,4-c]pyridin-5-yl]urea]
31 | 0.0721 µM | CO[C@H]1CCC[C@@H]1NC(=O)Nc1cc2cnn(-c3ccnc(C)c3)c2cn1 [Example 140, 1-[(1S,2S)-2-methoxycyclopentyl]-3-[1-(2-methylpyridin-4-yl)-1H-pyrazolo[3,4-c]pyridin-5-yl)urea]
32 | 0.92 µM | C[C@@H](NC(=O)Nc1cc2cnn(C)c2cn1)c1ccccc1 [Example 225, (R)-1-(1-methyl-1H-pyrazolo[3,4-c]pyridin-5-yl)-3-(1-phenylethyl)urea]
33 | 0.23 µM | C[C@@H](NC(=O)Nc1cc2cnn(CC3CCC3)c2c(CO)n1)c1ccccc1 [Example 304, 1-[1-(cyclobutylmethyl)-7-(hydroxymethyl)-1H-pyrazolo[3,4-c]pyridin-5-yl]-3-[(1R)-1-phenylethyl]urea]
34 | 0.026 µM | O=C(NCc1ccc(F)cc1)Nc1cc2cnn(-c3ccc(F)cc3)c2cn1 [Example 1, 1-(4-fluorobenzyl)-3-(1-(4-fluorophenyl)-1H-pyrazolo[3,4-c]pyridin-5-yl)urea]
35 | 0.0664 µM | Cc1cc(-n2ncc3cc(NC(=O)N[C@H]4CN(C)C[C@@H]4C)ncc32)ccn1 [Example 25, 1-[(3R,4S)-1,4-dimethylpyrrolidin-3-yl]-3-[1-(2-methylpyridin-4-yl)-1H-pyrazolo[3,4-c]pyridin-5-yl]urea]
36 | 0.531 µM | Cn1ncc2cc(NC(=O)NC3CCCN(Cc4c(F)cccc4F)C3)ncc21 (stereo not drawn) [Example 236, 1-[1-(2,6-difluorobenzyl)piperidin-3-yl]-3-(1-methyl-1H-pyrazolo[3,4-c]pyridin-5-yl)urea]
